Results as given in patent publication US20240368668A1, “SUBSTRATES AND BIOMARKERS OF ADAMTS7” (The Broad Institute, Inc., priority 2021, published 2024).
Square brackets hold non-standard residues; d marks the D form. Ends that are not written are not given here.

Test system: mouse ADAMTS7
Assay: TMT10 TAILS N-terminomics, SMC2 experiment (process replicates, trypsin/AspN digest)
Type: cell-based
In short: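 Full-length mouse ADAMTS7 (WT or E373Q mutant, C-terminal 3xFLAG) or luciferase was transduced via adenovirus, 50 MOI, into HCA-SMC (SMC1, SMC2) or HUVEC. SMC1: pooled media, technical triplicates 400 ug; SMC2: process triplicates 300 ug; HUVEC: process triplicates 200 ug, bFGF2 10 ng/ml.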

[1] = SMC2_TAILS HC, log fold change, mWT over mEQ
[2] = log fold change, ADAMTS7 WT over EQ
[3] = SMC2_TAILS HC, log fold change of N-terminal peptide, Ad-mADAMTS7 WT over EQ

| Substance | logFC.mWT.over.mEQ [1] | logFC.mWT.over.mEQ [2] | other results |
| --- | --- | --- | --- |
| ACTG1_105 (LTEAPLNPKANR; listed as Homo sapiens) | 2.11 |  |  |
| ACTN4_5 (HAANQSYQYGPSSAGNGAGGGGSMG; listed as Homo sapiens) | 2.64 |  |  |
| ADAM9_74 (GKEHIIHLER; listed as Homo sapiens) | 4.31 |  |  |
| ADAM10_86 (FKVETSNKVL; listed as Homo sapiens) | 2.74 |  |  |
| ADNP2_375 (SQPVGPVNK; listed as Homo sapiens) | 0.75 |  |  |
| AMER2_654 (LAGTTIRATACH; listed as Homo sapiens) | 0.90 |  |  |
| APLP2_452 (LVETHLAR; listed as Homo sapiens) | 2.59 |  |  |
| APOA1_86 (EQLGPVTQEFW; listed as Homo sapiens) | 1.88 |  |  |
| BMPER_43 (LTGSVAKCENEG; listed as Homo sapiens) | 2.43 |  |  |
| CALU_176 (FTAFLHPEEY; listed as Homo sapiens) | 2.38 |  |  |
| CAP1_300 (FSAPKPQTSPSPKR; listed as Homo sapiens) | 2.81 |  |  |
| CCL2_28 (INAPVTCCYNFTNR; listed as Homo sapiens) | 1.46 |  |  |
| CEP192_728 (DKSTAGR; listed as Homo sapiens) | 2.95 |  |  |
| CTSB_109 (WAFGAVEAIS; listed as Homo sapiens) | 1.73 |  |  |
| DBN1_434 (APVEPATA; listed as Homo sapiens) | 1.57 |  |  |
| DIS3L_75 (FPELKGIIFMQTACQAVQHQR; listed as Homo sapiens) | 1.78 |  |  |
| ECM1_38 (FQEVGYAAPPSPPLSR; listed as Homo sapiens) | 1.57 |  |  |
| ECM1_44 (AAPPSPPLSR; listed as Homo sapiens) | 2.54 |  |  |
| ECM1_108 (QEAVPLQK; listed as Homo sapiens) | 3.34 |  |  |
| EEF1G_23 (QYSGAQVR; listed as Homo sapiens) | 3.30 |  |  |
| EIF4B_426 (QTGTSTTSSR; listed as Homo sapiens) | 5.12 |  |  |
| EMSY_943 (QTVVQVLAVK; listed as Homo sapiens) | 0.92 |  |  |
| FBLN2_665 (FSQVASNTIPLPLPQPNTCK; listed as Homo sapiens) | 1.89 |  |  |
| FLNA_689 (VNKPAEFTV; listed as Homo sapiens) | 6.12 |  |  |
| FLNC_2649 (FVGQKNSFTV; listed as Homo sapiens) | 3.97 |  |  |

| Substance | logFC.mWT.over.mEQ [1] | logFC.mWT.over.mEQ [2] | other results |
| --- | --- | --- | --- |
| FN1_35 ([code q]MVQPQSPVAVSQSKPGCY; not fully specified (residue 2); listed as Homo sapiens) | 2.08 |  |  |
| FN1_99 (DKYTGNTYR; listed as Homo sapiens) | 1.43 |  |  |
| FN1_607 (SSSGPVEVFIT; listed as Homo sapiens) | 0.63 |  |  |
| FN1_1693 (LQPTVEYVVSVYAQNPSG; listed as Homo sapiens) | 2.05 |  |  |
| FN1_1780 (LQGLRPGSEYTVSVVALH; listed as Homo sapiens) | 2.01 |  |  |
| FN1_1805 (LIGTQSTAIPAPT; listed as Homo sapiens) | 1.73 |  |  |
| FN1_2113 (FVTHPGY; listed as Homo sapiens) | 1.57 |  |  |
| FOXG1_235 (LNKCFVKVPRHY; listed as Homo sapiens) | 3.34 |  |  |
| FSTL1_290 (LQKHQETA; listed as Homo sapiens) |  |  | SMC2 logFC.mWT.over.mEQ (TAILS HC Overlap, SMC2, log fold change mouse ADAMTS7 WT over catalytically inactive EQ): 2.86 |
| FSTL_1290 (LQKHQETA; listed as Homo sapiens) | 2.86 |  |  |
| HEG1_51 (GLELQLER; listed as Homo sapiens) | 0.65 |  |  |
| HEG1_224 (FQTKSGTAS; listed as Homo sapiens) | 3.25 |  |  |
| KCND1_436 (RLAKSGTTNAFLQYKQNGGLE; listed as Homo sapiens) | 1.74 |  |  |
| KRT28_2 (SLQFSNGSR; listed as Homo sapiens) | 2.22 |  |  |
| LASP1_182 (SYGGYKEPAAPVSIQR; listed as Homo sapiens) | 1.01 |  |  |
| LOXL1_157 (SVSASAFASTYR; listed as Homo sapiens) | 2.90 |  |  |
| LOX_60 (LGSQYQPQR; listed as Homo sapiens) | 1.59 |  |  |
| LOX_125 (FQAGYSTSR; listed as Homo sapiens) | 3.33 |  |  |
| QSOX1_558 (VAAAPELAMGALELESR; listed as Homo sapiens) |  | 1.13 |  |
| SDC4_106 (LEENEVIPKR; listed as Homo sapiens) |  | 1.67 |  |
| SERPINH1_27 (AAAPGTAEKLSPKAATLAER; listed as Homo sapiens) |  | 3.30 |  |
| SMOC1_35 (LISDRDPQCNLHCSR; listed as Homo sapiens) |  | 1.62 |  |
| SPOCK1_126 (HWVGPSNLVK; listed as Homo sapiens) |  | 0.93 |  |
| SRGN_50 (LEEKGPMFELLPGESNKIPR; listed as Homo sapiens) |  | 3.28 |  |
| SRGN_51 (EEKGPMFELLPGESNKIPR; listed as Homo sapiens) |  | 1.79 |  |

| Substance | logFC.mWT.over.mEQ [1] | logFC.mWT.over.mEQ [2] | other results |
| --- | --- | --- | --- |
| SRGN_60 (LPGESNKIPR; listed as Homo sapiens) |  | 3.25 |  |
| SRGN_62 (GESNKIPR; listed as Homo sapiens) |  | 3.26 |  |
| STC1_37 (QNSAEVVR; listed as Homo sapiens) |  | 4.78 |  |
| STC2_239 (HGEAGHHLPEPSSR; listed as Homo sapiens) |  | 1.70 |  |
| STC2_244 (HHLPEPSSR; listed as Homo sapiens) |  | 1.35 |  |
| TGFBI_24 (GPAKSPYQLVLQHSR; listed as Homo sapiens) |  | 0.71 |  |
| TGFBI_43 ([code q]HGPNVCAVQKVIGTNR; not fully specified; listed as Homo sapiens) |  | 0.75 |  |
| TGFBI_50 (AVQKVIGTNR; listed as Homo sapiens) |  | 0.64 |  |
| TGFBI_208 (GIVTVNCAR; listed as Homo sapiens) |  | 0.59 |  |
| TGFBI_276 (TLLAPT[code n]EAFEKIPSETLNR; not fully specified; listed as Homo sapiens) |  | 0.66 |  |
| TGFBI_497 (VLTPPMGTVMDVLKGDNR; not fully specified (residue 6); listed as Homo sapiens) |  | 0.61 |  |
| TGFBI_524 (SAGLTETLNR; listed as Homo sapiens) |  | 0.66 |  |
| TGFBI_534 (EGVYTVFAPTNEAFR; listed as Homo sapiens) |  | 0.82 |  |
| TG_1017 (GASALLR; listed as Homo sapiens) |  | 3.05 |  |
| THBS1_972 (QNDPNWVVR; listed as Homo sapiens) |  | 3.59 |  |
| TLN1_1501 (HTSALCNSCR; listed as Homo sapiens) |  | 1.48 |  |
| TMEM132A_52 (LLDAPEHFR; listed as Homo sapiens) |  | 2.95 |  |
| VASN_138 (HIQPGAFDTLDR; listed as Homo sapiens) |  | 1.45 |  |
| VASP_229 (AIAGAKLR; listed as Homo sapiens) |  | 4.56 |  |
| VCAN_3367 (FKNSSSAK; listed as Homo sapiens) |  |  | logFC.mWT.over.mEQ [3]: 1.51 |
| VIM_276 (YESVAAKNLQ; listed as Homo sapiens) |  |  | logFC.mWT.over.mEQ [3]: 0.83 |
| VIM_322 (QVQSLTCEV; listed as Homo sapiens) |  |  | logFC.mWT.over.mEQ [3]: 1.11 |
| VIM_433 (LVDTHSKR; listed as Homo sapiens) |  | 2.79 |  |
| ZSCAN4_25 (FQQSQGPAVQR; listed as Homo sapiens) |  |  | logFC.mWT.over.mEQ [3]: 2.89 |
